Source: patent US8952024B2, “Herbicidal pyrimidone derivatives” (E I du Pont de Nemours and Company, priority 2009, dated 2015)

Assays:
Format in all cases: in vivo
[1] = tested on: barnyardgrass (Echinochloa crus-galli); assay: Test A pre-/postemergence plant response
Excerpt: (§1) Seeds of barnyardgrass (Echinochloa crus-galli), large crabgrass (Digitaria sanguinalis), giant foxtail (Setaria faberii), morningglory (Ipomoea spp.), pigweed (Amaranthus retroflexus), velvetleaf (Abutilon theophrasti), wheat (Triticum aestivum) and corn (Zea mays) were planted into a blend of loam soil and sand and treated preemergence with a directed soil spray using test chemicals formulated in a non-phytotoxic solvent mixture which included a surfactant. At the same time these species were also treated with postemergence applications of test compounds formulated in the same manner.
(§2) Plants ranged in height from two to ten cm and were in the one- to two-leaf stage for the postemergence treatment. Treated plants and untreated controls were maintained in a greenhouse for approximately ten days, after which time all treated plants were compared to untreated controls and visually evaluated for injury. Plant response ratings, summarized in Table A, are based on a 0 to 100 scale where 0 is no effect and 100 is complete control. A dash (-) response means no test result.

corn (Zea mays) = assay: Test A pre-/postemergence plant response
Excerpt: as §1, §2

[2] = tested on: giant foxtail (Setaria faberii); assay: Test A pre-/postemergence plant response
Excerpt: as §1, §2

[3] = tested on: large crabgrass (Digitaria sanguinalis); assay: Test A pre-/postemergence plant response
Excerpt: as §1, §2

[4] = tested on: morningglory (Ipomoea spp.); assay: Test A pre-/postemergence plant response
Excerpt: as §1, §2

[5] = tested on: pigweed (Amaranthus retroflexus); assay: Test A pre-/postemergence plant response
Excerpt: as §1, §2

[6] = tested on: velvetleaf (Abutilon theophrasti); assay: Test A pre-/postemergence plant response
Excerpt: as §1, §2

[7] = tested on: wheat (Triticum aestivum); assay: Test A pre-/postemergence plant response
Excerpt: as §1, §2

[8] = tested on: barnyardgrass (Echinochloa crus-galli); assay: Test B flooded paddy test; details: for Plant response rating, Flood, Barnyardgrass: 250 g ai/ha, flooded paddy test, visual rating on 0 to 100 scale (0 no effect, 100 complete control) after 13 to 15 days; for Plant response rating, Barnyardgrass: Flood (flooded paddy test), 13 to 15 days; for Barnyardgrass plant response rating: Flood, 31 g ai/ha, scale 0 to 100 (0 no effect, 100 complete control)
Excerpt: (§3) Plant species in the flooded paddy test consisted of rice (Oryza sativa), umbrella sedge (Cyperus difformis), ducksalad (Heteranthera limosa) and barnyardgrass (Echinochloa crus-galli) grown to the 2-leaf stage for testing. At the time of treatment, test pots were flooded with water to 3 cm above the soil surface, treated by application of test compounds directly to the paddy water, and then maintained at that water depth for the duration of the test.
(§4) Treated plants and controls were maintained in a greenhouse for 13 to 15 days, after which time all treated plants were visually evaluated and compared to controls. Plant response ratings, summarized in Table B, are based on a scale of 0 to 100 where 0 is no effect and 100 is complete control. A dash (-) response means no test result.

[9] = tested on: ducksalad (Heteranthera limosa); assay: Test B flooded paddy test; details: for Plant response rating, Flood, Ducksalad: 250 g ai/ha, flooded paddy test, visual rating on 0 to 100 scale (0 no effect, 100 complete control) after 13 to 15 days; for Plant response rating, Ducksalad: Flood (flooded paddy test), 13 to 15 days; for Ducksalad plant response rating: Flood, 31 g ai/ha, scale 0 to 100 (0 no effect, 100 complete control)
Excerpt: as §3, §4

rice (Oryza sativa) = assay: Test B flooded paddy test; details: for Plant response rating, Flood, Rice: 250 g ai/ha, flooded paddy test, visual rating on 0 to 100 scale (0 no effect, 100 complete control) after 13 to 15 days; for Plant response rating, Rice: Flood (flooded paddy test), 13 to 15 days; for Rice plant response rating: Flood, 31 g ai/ha, scale 0 to 100 (0 no effect, 100 complete control)
Excerpt: as §3, §4

[10] = tested on: umbrella sedge (Cyperus difformis); assay: Test B flooded paddy test; details: for Plant response rating, Flood, Sedge, Umbrella: 250 g ai/ha, flooded paddy test, visual rating on 0 to 100 scale (0 no effect, 100 complete control) after 13 to 15 days; for Plant response rating, Sedge, Umbrella: Flood (flooded paddy test), 13 to 15 days; for Sedge, Umbrella plant response rating: Flood, 31 g ai/ha, scale 0 to 100 (0 no effect, 100 complete control)
Excerpt: as §3, §4

[11] = Postemergence, 125 g ai/ha, 0 to 100 scale where 0 is no effect and 100 is complete control
[12] = Postemergence, 500 g ai/ha, 0 to 100 scale, 0 = no effect, 100 = complete control, approx. ten days
[13] = Preemergence, 125 g ai/ha, 0 to 100 scale, 0 = no effect, 100 = complete control
[14] = Preemergence, 500 g ai/ha, visual injury, 0 to 100 scale (0 no effect, 100 complete control), approx. ten days
[15] = Preemergence, 500 g ai/ha, 0 to 100 scale, 0 = no effect, 100 = complete control
[16] = 62 g ai/ha, scale of 0 to 100 where 0 is no effect and 100 is complete control
[17] = 125 g ai/ha, scale 0 to 100, 0 is no effect, 100 is complete control
[18] = Postemergence, 500 g ai/ha, visual injury, 0 to 100 scale (0 no effect, 100 complete control), approx. ten days

## Cc1ccc(F)cc1-n1c(-c2cccc(Br)c2)ncc(C(=O)C2=C(O)CCCC2=O)c1=O [Compound 154]
[1]; [11]
  Plant response rating, Barnyardgrass: 90
[1]; [12]
  Plant response rating, Barnyardgrass: 90
[1]; [13]
  Plant response rating, Barnyardgrass: 0
[1]; [14]
  Plant response rating, Barnyardgrass: 40
Corn (Zea mays); [11]
  Plant response rating, Corn: 0
Corn (Zea mays); [12]
  Plant response rating, Corn: 10
Corn (Zea mays); [13]
  Plant response rating, Corn: 0
Corn (Zea mays); [14]
  Plant response rating, Corn: 0
[2]; [11]
  Plant response rating, Foxtail, Giant: 60
[2]; [12]
  Plant response rating, Foxtail, Giant: 90
[2]; [13]
  Plant response rating, Foxtail, Giant: 10
[2]; [14]
  Plant response rating, Foxtail, Giant: 30
[3]; [11]
  Plant response rating, Crabgrass, Large: 70
[3]; [12]
  Plant response rating, Crabgrass, Large: 100
[3]; [13]
  Plant response rating, Crabgrass, Large: 10
[3]; [14]
  Plant response rating, Crabgrass, Large: 50
[4]; [11]
  Plant response rating, Morningglory: 30
[4]; [12]
  Plant response rating, Morningglory: 70
[4]; [13]
  Plant response rating, Morningglory: 0
[4]; [14]
  Plant response rating, Morningglory: 0
[5]; [11]
  Plant response rating, Pigweed: 60
[5]; [12]
  Plant response rating, Pigweed: 100
[5]; [13]
  Plant response rating, Pigweed: 30
[5]; [14]
  Plant response rating, Pigweed: 80
[6]; [11]
  Plant response rating, Velvetleaf: 100
[6]; [12]
  Plant response rating, Velvetleaf: 100
[6]; [13]
  Plant response rating, Velvetleaf: 40
[6]; [15]
  Plant response rating, Velvetleaf: 80
[7]; [11]
  Plant response rating, Wheat: 0
[7]; [12]
  Plant response rating, Wheat: 0
[7]; [13]
  Plant response rating, Wheat: 0
[7]; [15]
  Plant response rating, Wheat: 0
[8]
  Plant response rating, Flood, Barnyardgrass: 40
  Barnyardgrass plant response rating: 0
[8]; [16]
  Plant response rating, Barnyardgrass: 0
[8]; [17]
  Plant response rating, Barnyardgrass: 0
[9]
  Plant response rating, Flood, Ducksalad: 100
  Ducksalad plant response rating: 0
[9]; [16]
  Plant response rating, Ducksalad: 50
[9]; [17]
  Plant response rating, Ducksalad: 70
Rice (Oryza sativa)
  Plant response rating, Flood, Rice: 75
  Rice plant response rating: 0
Rice (Oryza sativa); [16]
  Plant response rating, Rice: 0
Rice (Oryza sativa); [17]
  Plant response rating, Rice: 60
[10]
  Plant response rating, Flood, Sedge, Umbrella: 100
  Sedge, Umbrella plant response rating: 0
[10]; [16]
  Plant response rating, Sedge, Umbrella: 95
[10]; [17]
  Plant response rating, Sedge, Umbrella: 95

## Cc1ccc(-n2c(-c3cccc(C)c3)ncc(C(=O)C3=C(O)CCCC3=O)c2=O)cc1 [Compound 211]
[1]; [11]
  Plant response rating, Barnyardgrass: 50
[1]; [18]
  Barnyardgrass plant response rating: 100
[1]; [13]
  Plant response rating, Barnyardgrass: 10
[1]; [15]
  Plant response rating, Barnyardgrass: 70
Corn (Zea mays); [11]
  Plant response rating, Corn: 0
Corn (Zea mays); [18]
  Corn plant response rating: 20
Corn (Zea mays); [13]
  Plant response rating, Corn: 0
Corn (Zea mays); [15]
  Plant response rating, Corn: 0
[2]; [11]
  Plant response rating, Foxtail, Giant: 50
[2]; [18]
  Foxtail, Giant plant response rating: 80
[2]; [13]
  Plant response rating, Foxtail, Giant: 20
[2]; [15]
  Plant response rating, Foxtail, Giant: 50
[3]; [11]
  Plant response rating, Crabgrass, Large: 40
[3]; [18]
  Crabgrass, Large plant response rating: 80
[3]; [13]
  Plant response rating, Crabgrass, Large: 10
[3]; [15]
  Plant response rating, Crabgrass, Large: 90
[4]; [11]
  Plant response rating, Morningglory: 70
[4]; [18]
  Morningglory plant response rating: 100
[4]; [13]
  Plant response rating, Morningglory: 0
[4]; [15]
  Plant response rating, Morningglory: 10
[5]; [11]
  Plant response rating, Pigweed: 70
[5]; [18]
  Pigweed plant response rating: 90
[5]; [13]
  Plant response rating, Pigweed: 40
[5]; [15]
  Plant response rating, Pigweed: 60
[6]; [11]
  Plant response rating, Velvetleaf: 60
[6]; [18]
  Velvetleaf plant response rating: 70
[6]; [13]
  Plant response rating, Velvetleaf: 30
[6]; [15]
  Plant response rating, Velvetleaf: 60
[7]; [11]
  Plant response rating, Wheat: 0
[7]; [18]
  Wheat plant response rating: 0
[7]; [13]
  Plant response rating, Wheat: 0
[7]; [15]
  Plant response rating, Wheat: 0
[8]
  Plant response rating, Flood, Barnyardgrass: 35
  Barnyardgrass plant response rating: 0
[8]; [16]
  Plant response rating, Barnyardgrass: 0
[8]; [17]
  Plant response rating, Barnyardgrass: 25
[9]
  Plant response rating, Flood, Ducksalad: 85
  Ducksalad plant response rating: 50
[9]; [17]
  Plant response rating, Ducksalad: 85
Rice (Oryza sativa)
  Plant response rating, Flood, Rice: 15
  Rice plant response rating: 0
Rice (Oryza sativa); [16]
  Plant response rating, Rice: 0
Rice (Oryza sativa); [17]
  Plant response rating, Rice: 0
[10]
  Plant response rating, Flood, Sedge, Umbrella: 80
  Sedge, Umbrella plant response rating: 0
[10]; [16]
  Plant response rating, Sedge, Umbrella: 0
[10]; [17]
  Plant response rating, Sedge, Umbrella: 70
